Results on 31 compounds are retold here after patent publication US9409914B2, “Triazolo[4,5-d]pyrimidine derivatives” (Merck Patent GmbH, priority 2012, dated 2016).

Molecules are shown by their SMILES. pIC50: −log10 of the molar value. Some results are limits rather than exact numbers.

As a reminder, the pIC50 is −log10 of the IC50, conventionally taken in molar units. Higher therefore signals a low IC50.

The assay deals with GCN2 (Homo sapiens, UniProt Q9P2K8). As to the kind of experiment: GCN2 enzyme assay (TR-FRET Lanthascreen, phosphorylation of GFP-eIF2alpha). The note with it: 10 μM ATP, 80 nM GFP-eIF2alpha, 30 nM GCN2, room temperature. It is filed as biochemical. The source says: GCN2: Assay principle & conditions
Sequence of GCN2 (Q9P2K8 whole entry, species assumed): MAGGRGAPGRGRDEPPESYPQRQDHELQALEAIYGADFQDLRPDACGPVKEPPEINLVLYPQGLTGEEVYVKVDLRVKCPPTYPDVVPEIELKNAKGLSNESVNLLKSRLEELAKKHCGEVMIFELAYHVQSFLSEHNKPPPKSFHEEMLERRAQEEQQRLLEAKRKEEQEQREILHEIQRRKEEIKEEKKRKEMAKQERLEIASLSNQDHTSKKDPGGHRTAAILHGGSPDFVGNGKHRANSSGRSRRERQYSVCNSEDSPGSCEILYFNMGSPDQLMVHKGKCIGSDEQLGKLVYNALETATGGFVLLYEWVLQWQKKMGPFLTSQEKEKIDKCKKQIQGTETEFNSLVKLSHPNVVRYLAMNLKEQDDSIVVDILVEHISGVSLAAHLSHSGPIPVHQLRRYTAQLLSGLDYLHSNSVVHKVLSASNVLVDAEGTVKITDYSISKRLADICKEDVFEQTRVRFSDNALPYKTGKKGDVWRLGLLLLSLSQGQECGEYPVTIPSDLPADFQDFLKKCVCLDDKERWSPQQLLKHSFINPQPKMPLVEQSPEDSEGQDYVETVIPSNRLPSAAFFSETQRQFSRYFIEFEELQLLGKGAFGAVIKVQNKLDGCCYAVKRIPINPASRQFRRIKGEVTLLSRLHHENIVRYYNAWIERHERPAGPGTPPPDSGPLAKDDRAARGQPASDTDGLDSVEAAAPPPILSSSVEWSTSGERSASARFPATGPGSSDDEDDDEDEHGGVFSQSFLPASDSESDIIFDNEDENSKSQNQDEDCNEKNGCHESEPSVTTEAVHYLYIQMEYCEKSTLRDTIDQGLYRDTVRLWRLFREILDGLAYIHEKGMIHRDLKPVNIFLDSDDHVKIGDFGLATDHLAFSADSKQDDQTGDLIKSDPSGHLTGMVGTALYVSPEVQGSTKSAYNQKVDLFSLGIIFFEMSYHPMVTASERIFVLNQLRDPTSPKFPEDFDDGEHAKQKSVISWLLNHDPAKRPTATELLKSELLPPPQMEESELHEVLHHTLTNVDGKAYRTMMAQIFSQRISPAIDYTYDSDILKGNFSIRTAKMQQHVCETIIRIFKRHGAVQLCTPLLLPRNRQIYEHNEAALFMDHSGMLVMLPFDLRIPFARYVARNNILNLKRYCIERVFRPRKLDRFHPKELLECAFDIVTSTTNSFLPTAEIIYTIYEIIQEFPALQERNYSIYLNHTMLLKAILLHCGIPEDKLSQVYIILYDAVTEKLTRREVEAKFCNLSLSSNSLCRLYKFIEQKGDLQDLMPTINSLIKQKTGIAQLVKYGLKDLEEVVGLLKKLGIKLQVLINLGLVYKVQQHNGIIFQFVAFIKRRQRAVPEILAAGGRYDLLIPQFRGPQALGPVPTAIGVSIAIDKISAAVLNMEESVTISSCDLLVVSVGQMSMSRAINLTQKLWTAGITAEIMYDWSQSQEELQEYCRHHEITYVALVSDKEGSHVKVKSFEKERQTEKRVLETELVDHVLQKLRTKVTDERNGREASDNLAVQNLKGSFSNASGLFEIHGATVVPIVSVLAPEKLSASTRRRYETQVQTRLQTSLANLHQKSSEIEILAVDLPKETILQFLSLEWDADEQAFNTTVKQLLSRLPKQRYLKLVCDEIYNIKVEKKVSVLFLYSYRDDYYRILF
This assay can quantificate the activity of the serin kinase GCN2 (general control non-derepressible-2).
This kinase is involved in the stress metabolism of cells. It is activated upon starvation (amino acid depletion). Its natural substrate is eIF2a (eukaryotic initiation factor 2 alpha subunit), a translation factor, which gets activated (phosphorylated) by GCN2 in case of an amino acid bottleneck in the cells. This in turn leads to a halt of the protein synthesis. Inhibition of GCN2 results in stopping this mechanism: The cell can not stop protein production upon “starvation” stress.
The assay is run in two steps: the enzymatic reaction and the detection step. In the first step GCN2 is incubated with 10 μM ATP and 80 nM of the GFP-labelled substrate eIF2alpha at room temperature.
The enzymatic reaction is stopped by addition of EDTA. The amount of phosphorylated eIF2alpha is determined by TR-FRET (Lanthascreen): A complex is formed consisting of antibody and GFP labelled phospho-eIF2a, which allows a FRET upon exitation at 340 nm.
The GCN2-activity is directly proportional to the ratio of fluorescence units at the emission wavelengthh 520 nm (phosphopeptide-sensitive wavelength=emission of GFP) to the units at 495 nm (reference wavelength=emission of Terbium-chelate).
Final Concentrations in the Enzymatic Reaction
For orientation: In TR-FRET formats the signal depends on donor and acceptor labels being close together.
`CCOc1ccc(-n2nnc3cnc(Nc4cnn([C@H]5CC[C@@H](O)CC5)c4)nc32)cc1` [Compound A19, 4-{4-[3-(4-ethoxy-phenyl)-3H-[1,2,3]triazolo[4,5-d]pyrimidin-5-ylamino]-pyrazol-1-yl}-cyclohexanol] had a pIC50 of more than 6.52. In the case of `COc1ccc(-n2nnc3cnc(Nc4ncn[nH]4)nc32)cc1` [Compound A17, [3-(4-methoxy-phenyl)-3H-[1,2,3]triazolo[4,5-d]pyrimidin-5-yl]-(2H-[1,2,4]triazol-3-yl)-amine], the pIC50 is 4.30 to 5.52. To `CCn1cc(Nc2ncc3nnn(-c4ccnc(OC)c4)c3n2)cn1` [Compound A62, (1-ethyl-1H-pyrazol-4-yl)-[3-(2-methoxy-pyridin-4-yl)-3H-[1,2,3]triazolo[4,5-d]pyrimidin-5-yl]-amine] belongs more than 6.52; to `COc1ccc(-n2nnc3cnc(/N=C4/N=C(C)CO4)nc32)cc1` [Compound A12, [3-(4-methoxy-phenyl)-3H-[1,2,3]triazolo[4,5-d]pyrimidin-5-yl]-[4-methyl-5H-oxazol-(2Z)-ylidene]-amine], 4.30 to 5.52; to `NS(=O)(=O)c1ccc(-n2nnc3cnc(Nc4cnn(CCn5cccn5)c4)nc32)cc1` [Compound A135, 4-{5-[1-(2-pyrazol-1-yl-ethyl)-1H-pyrazol-4-ylamino]-[1,2,3]triazolo[4,5-d]pyrimidin-3-yl)-benzenesulfonamide], more than 6.52. `CN1CCC(n2cc(Nc3ncc4nnn(-c5ccc(S(N)(=O)=O)cc5)c4n3)cn2)CC1` [Compound A142, 4-{5-[1-(1-methyl-piperidin-4-yl)-1H-pyrazol-4-ylamino]-[1,2,3]triazolo[4,5-d]pyrimidin-3-yl}-benzenesulfonamide] had a pIC50 of more than 6.52. In turn, `Cn1cc(Nc2ncc3nnn(-c4cnn(C)c4)c3n2)cn1` [Compound A21, (1-methyl-1H-pyrazol-4-yl)-[3-(1-methyl-1H-pyrazol-4-yl)-3H-[1,2,3]triazolo[4,5-d]pyrimidin-5-yl]-amine] gave a pIC50 of more than 6.52.

Consider `CCOc1ccc(-n2nnc3cnc(Nc4cnn(C5CCNCC5)c4)nc32)cc1` [Compound A7, [3-(4-Ethoxy-phenyl)-3H-[1,2,3]triazolo[4,5-d]pyrimidin-5-yl]-(1-piperidin-4-yl-1H-pyrazol-4-yl)-amine], for which the pIC50 is more than 6.52. With `CCOc1ccc(-n2nnc3cnc(Nc4cnn(CCN5CCC(O)C5)c4)nc32)cc1` (stereo not shown) [Compound A151, 1-(2-{4-[3-(4-ethoxy-phenyl)-3H-[1,2,3]triazolo[4,5-d]pyrimidin-5-ylamino]-pyrazol-1-yl}-ethyl)-pyrrolidin-3-ol], the negative logarithm of the IC50 (pIC50) is more than 6.52. `CN1CCC(n2cc(Nc3ncc4nnn(-c5ccn(C)n5)c4n3)cn2)CC1` [Compound A139, [1-(1-methyl-piperidin-4-yl)-1H-pyrazol-4-yl]-[3-(1-methyl-1H-pyrazol-3-yl)-3H-[1,2,3]triazolo[4,5-d]pyrimidin-5-yl]-amine] showed a pIC50 of 5.52 to 6.52. Take `CCOc1ccc(-n2nnc3cnc(Nc4cnn(-c5ccccc5)c4)nc32)cc1` [Compound A64, [3-(4-ethoxy-phenyl)-3H-[1,2,3]triazolo[4,5-d]pyrimidin-5-yl]-(1-phenyl-1H-pyrazol-4-yl)-amine]: the pIC50 was more than 6.52.

On to `CS(=O)(=O)N1CCC(n2cc(Nc3ncc4nnn(-c5ccc(F)c(Cl)c5)c4n3)cn2)CC1` [Compound A154, [3-(3-chloro-4-fluoro-phenyl)-3H-[1,2,3]triazolo[4,5-d]pyrimidin-5-yl]-[1-(1-methanesulfonyl-piperidin-4-yl)-1H-pyrazol-4-yl]-amine], for which the pIC50 is 5.52 to 6.52. With `CCCCOc1ccc(-n2nnc3cnc(Nc4cnn(C5CCN(C)CC5)c4)nc32)cn1` [Compound A45, [3-(6-butoxy-pyridin-3-yl)-3H-[1,2,3]triazolo[4,5-d]pyrimidin-5-yl]-[1-(1-methyl-piperidin-4-yl)-1H-pyrazol-4-yl]-amine], the pIC50 is 5.52 to 6.52. `COc1cc(-n2nnc3cnc(Nc4cnn(C5CCOCC5)c4)nc32)ccn1` [Compound A78, [3-(2-methoxy-pyridin-4-yl)-3H-[1,2,3]triazolo[4,5-d]pyrimidin-5-yl]-[1-(tetrahydro-pyran-4-yl)-1H-pyrazol-4-yl]-amine] showed a pIC50 of more than 6.52.

For the compound `Fc1cc(-n2nnc3cnc(Nc4cnn(CCN5CCOCC5)c4)nc32)ccc1Cl` [Compound A114, [3-(4-chloro-3-fluoro-phenyl)-3H-[1,2,3]triazolo[4,5-d]pyrimidin-5-yl]-[1-(2-morpholin-4-yl-ethyl)-1H-pyrazol-4-yl]-amine], the pIC50 was 5.52 to 6.52.

Compound `CCn1cc(Nc2ncc3nnn(-c4ccc(NC(C)=O)nc4)c3n2)cn1` [Compound A58, N-{5-[5-(1-ethyl-1H-pyrazol-4-ylamino)-[1,2,3]triazolo[4,5-d]pyrimidin-3-yl]-pyridin-2-yl}-acetamide] had a negative logarithm of the IC50 (pIC50) of more than 6.52. Regarding `c1cnc2cc(-n3nnc4cnc(Nc5cnn(CCn6cccn6)c5)nc43)ccc2c1` [Compound A134, [1-(2-pyrazol-1-yl-ethyl)-1H-pyrazol-4-yl]-(3-quinolin-7-yl-3H-[1,2,3]triazolo[4,5-d]pyrimidin-5-yl)-amine], the negative logarithm of the IC50 (pIC50) was 5.52 to 6.52. For `c1cnc2cc(-n3nnc4cnc(Nc5cnn(C6CCOCC6)c5)nc43)ccc2n1` [Compound A94, (3-quinoxalin-6-yl-3H-[1,2,3]triazolo[4,5-d]pyrimidin-5-yl)-[1-(tetrahydro-pyran-4-yl)-1H-pyrazol-4-yl]-amine], the pIC50 is more than 6.52. The same measure for `COc1ccc(-n2nnc3cnc(Nc4cnn([C@H]5CC[C@H](O)CC5)c4)nc32)nc1` [Compound A143, 4-{4-[3-(5-methoxy-pyridin-2-yl)-3H-[1,2,3]triazolo[4,5-d]pyrimidin-5-ylamino]-pyrazol-1-yl}-cyclohexanol]: more than 6.52; for `COc1ccc(-n2nnc3cnc(Nc4cnn(Cc5ccccc5)c4)nc32)cc1` [Compound A10, (1-benzyl-1H-pyrazol-4-yl)-[3-(4-methoxy-phenyl)-3H-[1,2,3]triazolo[4,5-d]pyrimidin-5-yl]-amine]: 4.30 to 5.52; for `COc1ccc(-n2nnc3cnc(Nc4cnn(CCN5CCCC5)c4)nc32)cc1` [Compound A14, [3-(4-methoxy-phenyl)-3H-[1,2,3]triazolo[4,5-d]pyrimidin-5-yl]-[1-(2-pyrrolidin-1-yl-ethyl)-1H-pyrazol-4-yl]-amine]: more than 6.52. To `COc1ccc(-n2nnc3cnc(Nc4nc(-c5ccc(NC(C)=O)cc5)cs4)nc32)cc1` [Compound A42, N-[4-[2-[[3-(4-methoxyphenyl)triazolo[4,5-d]pyrimidin-5-yl]amino]thiazol-4-yl]phenyl]acetamide] belongs 5.52 to 6.52. In turn, `COc1ccc(-n2nnc3cnc(Nc4cnn(C)c4)nc32)cc1` [Compound A18, [3-(4-methoxy-phenyl)-3H-[1,2,3]triazolo[4,5-d]pyrimidin-5-yl]-(1-methyl-1H-pyrazol-4-yl)-amine] showed a pIC50 of more than 6.52. In the case of `CCCCOc1ccc(-n2nnc3cnc(Nc4cnn(CCC5CCNCC5)c4)nc32)cn1` [Compound A55, [3-(6-butoxy-pyridin-3-yl)-3H-[1,2,3]triazolo[4,5-d]pyrimidin-5-yl]-[1-(2-piperidin-4-yl-ethyl)-1H-pyrazol-4-yl]-amine], the pIC50 was 5.52 to 6.52. The compound `OC[C@@H]1C[C@H]1Cn1cc(Nc2ncc3nnn(-c4ccc5nccnc5c4)c3n2)cn1` (relative stereo) [Compound A104, {(trans)-2-[4-(3-quinoxalin-6-yl-3H-[1,2,3]triazolo[4,5-d]pyrimidin-5-ylamino)-pyrazol-1-ylmethyl]-cyclopropyl}-methanol] showed a pIC50 of more than 6.52. Compound `CCn1cc(Nc2ncc3nnn(-c4cnc5ccccc5c4)c3n2)cn1` [Compound A61, (1-ethyl-1H-pyrazol-4-yl)-(3-quinolin-3-yl-3H-[1,2,3]triazolo[4,5-d]pyrimidin-5-yl)-amine] showed a pIC50 of more than 6.52.

For the compound `COc1ccc(-n2nnc3cnc(Nc4cnn([C@H]5CC[C@@H](O)CC5)c4)nc32)cn1` [Compound A137, 4-{4-[3-(6-methoxy-pyridin-3-yl)-3H-[1,2,3]triazolo[4,5-d]pyrimidin-5-ylamino]-pyrazol-1-yl}-cyclohexanol], the pIC50 is 5.52 to 6.52. Consider `CCOc1ccc(-n2nnc3cnc(Nc4cc(-c5cnn(C)c5C)n[nH]4)nc32)cc1` [Compound A140, (1′,5′-dimethyl-1H,1′H-[3,4′]bipyrazolyl-5-yl)-[3-(4-ethoxy-phenyl)-3H-[1,2,3]triazolo[4,5-d]pyrimidin-5-yl]-amine], for which the pIC50 is 5.52 to 6.52. In turn, `CCn1cc(Nc2ncc3nnn(-c4ccc(O)cc4)c3n2)cn1` [Compound A66, 4-[5-(1-ethyl-1H-pyrazol-4-ylamino)-[1,2,3]triazolo[4,5-d]pyrimidin-3-yl]-phenol] showed a pIC50 of more than 6.52.

`CCOc1ccc(-n2nnc3cnc(Nc4cnn(C5CN(C(=O)COC)C5)c4)nc32)cc1` [Compound A150, 1-(3-{4-[3-(4-ethoxy-phenyl)-3H-[1,2,3]triazolo[4,5-d]pyrimidin-5-ylamino]-pyrazol-1-yl}-azetidin-1-yl)-2-methoxy-ethanone] showed a pIC50 of more than 6.52. The compound `COc1ccc(-n2nnc3cnc(Nc4cnn(N5CCOCC5=O)c4)nc32)cc1` [Compound A138, 4-{4-[3-(4-methoxy-phenyl)-3H-[1,2,3]triazolo[4,5-d]pyrimidin-5-ylamino]-pyrazol-1-yl}-morpholin-3-one] showed a pIC50 of more than 6.52.
